The values below come from patent publication US11717598B2, “Operating room coating applicator and method” (Ethicon, Inc., priority 2018, dated 2023).

For one test, the system named is S. aureus. As to conditions: measured in a suitable growth medium; Bhargava, H. et al, American Journal of Infection Control, June 1996; cited from earlier work.
A further test deals with Staphylococcus aureus. In words: zone of inhibition test of triclosan-coated stainless steel coupon on agar plate. The format is cell-based. As to conditions: triclosan coating on 0.5" polished 316 stainless steel coupon; incubated at 38° C. for 24 hours; inoculum of 10^5 bacteria per cubic centimeter; 80 mm diameter plate. An excerpt: A filter paper disk, or other object, impregnated with a particular antimicrobial agent is applied to an agar medium that is inoculated with the test organism. Where the anti-microbial agent diffuses through the medium, and as long as the concentration of the antimicrobial agent is above the MIC, none of the susceptible organism will grow on or around the disk for some distance. This distance is called a zone of inhibition. […] The diameter of the zone of inhibition is inversely proportional to the MIC.
A triclosan coating was applied to a 0.5″ polished 316 stainless steel coupon using the device described in FIGS. 1 and 2 according to the cycle described in FIG. 10. The stainless steel coupon was then incubated at 38° C. for 24 hours on an agar plate containing an initial Staphylococcus aureus inoculum of 10^5 bacteria per cubic centimeter of solution.

Turning to `Oc1cc(Cl)ccc1Oc1ccc(Cl)cc1Cl` [triclosan, 2,4,4′-trichloro-2′-hydroxydiphenyl ether], the “minimum inhibitory concentration (MIC) against S. aureus” value with S. aureus is 0.01 ppm. In the test with Staphylococcus aureus, the zone of inhibition entry is listed as “approximately 40 mm”.
